From the supplement of paper PMC13207355

Experiments:
Conditions in all cases: exposure time: 72 h
[1] = test system: E13 (patient-derived glioblastoma stem cells of classical subtype); assay: surviving fraction (nuclei count normalised to DMSO); higher = more cells surviving (less toxic)
[2] = test system: E21 (patient-derived glioblastoma stem cells of mesenchymal subtype); assay: as above
[3] = test system: E28 (patient-derived glioblastoma stem cells of classical subtype); assay: as above
[4] = test system: E31 (patient-derived glioblastoma stem cells of proneural subtype); assay: as above
[5] = test system: E34 (patient-derived glioblastoma stem cells of proneural subtype); assay: as above
[6] = test system: E57 (patient-derived glioblastoma stem cells of mesenchymal subtype); assay: as above
[7] = test system: FT3469 (normal neural stem cell line); assay: as above
[8] = test system: E13; assay: phenotypic distance (Euclidean, principal components) from DMSO controls (arbitrary units); higher = stronger morphological change
[9] = test system: E21; assay: as above
[10] = test system: E28; assay: as above
[11] = test system: E31; assay: as above
[12] = test system: E34; assay: as above
[13] = test system: E57; assay: as above
[14] = test system: FT3469; assay: as above
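For phenotypic distance (Euclidean, principal components) from DMSO controls in this document: cell Painting imaging in 384-well plates, CellProfiler features reduced to at least 20 principal components, Euclidean distance versus same-plate DMSO vehicle wells (0.1% v/v), median over six images per well.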
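For surviving fraction (nuclei count normalised to DMSO) in this document: nuclei counted by high-content imaging of Hoechst-stained cells in laminin-coated 384-well plates, relative to 0.1% DMSO vehicle wells, with staurosporine as cell-death control.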

CCCCCC[C@H]1C(=O)O[C@H](C)[C@H](NC(=O)c2cccc(NC=O)c2O)C(=O)O[C@@H](C)[C@@H]1OC(=O)CC(C)C [Antimycin A]
Conditions	phenotypic distance	surviving fraction
[1], 4.1 nM	–	0.562
[1], 12.3 nM	–	0.544
[1], 37 nM	–	0.546
[1], 111.1 nM	–	0.571
[1], 333.3 nM	–	0.512
[1], 1000 nM	–	0.538
[1], 3000 nM	–	0.416
[2], 4.1 nM	–	0.588
[2], 12.3 nM	–	0.629
[2], 37 nM	–	0.542
[2], 111.1 nM	–	0.55
[2], 333.3 nM	–	0.594
[2], 1000 nM	–	0.585
[2], 3000 nM	–	0.494
[3], 4.1 nM	–	0.8
[3], 12.3 nM	–	0.561
[3], 37 nM	–	0.625
[3], 111.1 nM	–	0.585
[3], 333.3 nM	–	0.506
[3], 1000 nM	–	0.527
[3], 3000 nM	–	0.521
[4], 4.1 nM	–	0.793
[4], 12.3 nM	–	0.864
[4], 37 nM	–	0.779
[4], 111.1 nM	–	0.683
[4], 333.3 nM	–	0.721
[4], 1000 nM	–	0.599
[4], 3000 nM	–	0.661
[5], 4.1 nM	–	0.771
[5], 12.3 nM	–	0.666
[5], 37 nM	–	0.745
[5], 111.1 nM	–	0.619
[5], 333.3 nM	–	0.717
[5], 1000 nM	–	0.682
[5], 3000 nM	–	0.652
[6], 4.1 nM	–	0.694
[6], 12.3 nM	–	0.642
[6], 37 nM	–	0.581
[6], 111.1 nM	–	0.515
[6], 333.3 nM	–	0.61
[6], 1000 nM	–	0.513
[6], 3000 nM	–	0.466
[7], 4.1 nM	–	0.95
[7], 12.3 nM	–	0.895
[7], 37 nM	–	0.872
[7], 111.1 nM	–	0.823
[7], 333.3 nM	–	0.719
[7], 1000 nM	–	0.929
[7], 3000 nM	–	0.659
[8], 4.1 nM	2.21	–
[8], 12.3 nM	2	–
[8], 37 nM	1.93	–
[8], 111.1 nM	2.18	–
[8], 333.3 nM	2.6	–
[8], 1000 nM	2.46	–
[8], 3000 nM	3.04	–
[9], 4.1 nM	3.65	–
[9], 12.3 nM	3.44	–
[9], 37 nM	4.09	–
[9], 111.1 nM	3.93	–
[9], 333.3 nM	3.39	–
[9], 1000 nM	3.78	–
[9], 3000 nM	3.71	–
[10], 4.1 nM	0.765	–
[10], 12.3 nM	1.08	–
[10], 37 nM	1.34	–
[10], 111.1 nM	1.41	–
[10], 333.3 nM	1.38	–
[10], 1000 nM	1.86	–
[10], 3000 nM	1.87	–
[11], 4.1 nM	1.51	–
[11], 12.3 nM	1.62	–
[11], 37 nM	1.68	–
[11], 111.1 nM	1.91	–
[11], 333.3 nM	2	–
[11], 1000 nM	1.59	–
[11], 3000 nM	1.73	–
[12], 4.1 nM	1.81	–
[12], 12.3 nM	2.11	–
[12], 37 nM	1.7	–
[12], 111.1 nM	2.19	–
[12], 333.3 nM	2.19	–
[12], 1000 nM	2.08	–
[12], 3000 nM	1.39	–
[13], 4.1 nM	2.07	–
[13], 12.3 nM	3.56	–
[13], 37 nM	4.06	–
[13], 111.1 nM	4.75	–
[13], 333.3 nM	4.39	–
[13], 1000 nM	4.71	–
[13], 3000 nM	5.22	–
[14], 4.1 nM	0.791	–
[14], 12.3 nM	1.47	–
[14], 37 nM	1.52	–
[14], 111.1 nM	1.43	–
[14], 333.3 nM	1.68	–
[14], 1000 nM	1.44	–
[14], 3000 nM	1.34	–

C[C@@H](O[C@H]1OCCN(Cc2n[nH]c(=O)[nH]2)[C@H]1c1ccc(F)cc1)c1cc(C(F)(F)F)cc(C(F)(F)F)c1 [Aprepitant]
Conditions	phenotypic distance	surviving fraction
[1], 4.1 nM	–	0.928
[1], 12.3 nM	–	0.902
[1], 37 nM	–	0.98
[1], 111.1 nM	–	0.996
[1], 333.3 nM	–	0.901
[1], 1000 nM	–	0.903
[1], 3000 nM	–	0.856
[2], 4.1 nM	–	1.02
[2], 12.3 nM	–	0.857
[2], 37 nM	–	0.96
[2], 111.1 nM	–	1.02
[2], 333.3 nM	–	1.02
[2], 1000 nM	–	0.955
[2], 3000 nM	–	0.913
[3], 4.1 nM	–	0.85
[3], 12.3 nM	–	1.09
[3], 37 nM	–	0.982
[3], 111.1 nM	–	1.03
[3], 333.3 nM	–	0.935
[3], 1000 nM	–	1.03
[3], 3000 nM	–	0.879
[4], 4.1 nM	–	1.03
[4], 12.3 nM	–	0.789
[4], 37 nM	–	1.01
[4], 111.1 nM	–	0.981
[4], 333.3 nM	–	1.07
[4], 1000 nM	–	1.04
[4], 3000 nM	–	1
[5], 4.1 nM	–	1.01
[5], 12.3 nM	–	1.01
[5], 37 nM	–	0.914
[5], 111.1 nM	–	1.03
[5], 333.3 nM	–	0.934
[5], 1000 nM	–	0.948
[5], 3000 nM	–	0.963
[6], 4.1 nM	–	0.865
[6], 12.3 nM	–	1.03
[6], 37 nM	–	1.02
[6], 111.1 nM	–	0.945
[6], 333.3 nM	–	0.985
[6], 1000 nM	–	1.07
[6], 3000 nM	–	0.96
[7], 4.1 nM	–	0.843
[7], 12.3 nM	–	0.823
[7], 37 nM	–	0.935
[7], 111.1 nM	–	0.829
[7], 333.3 nM	–	0.999
[7], 1000 nM	–	0.797
[7], 3000 nM	–	0.929
[8], 4.1 nM	0.787	–
[8], 12.3 nM	0.437	–
[8], 37 nM	0.522	–
[8], 111.1 nM	0.344	–
[8], 333.3 nM	0.93	–
[8], 1000 nM	0.532	–
[8], 3000 nM	1.13	–
[9], 4.1 nM	3.49	–
[9], 12.3 nM	1.08	–
[9], 37 nM	0.937	–
[9], 111.1 nM	0.517	–
[9], 333.3 nM	0.679	–
[9], 1000 nM	0.478	–
[9], 3000 nM	1.36	–
[10], 4.1 nM	0.614	–
[10], 12.3 nM	0.686	–
[10], 37 nM	0.613	–
[10], 111.1 nM	0.671	–
[10], 333.3 nM	0.788	–
[10], 1000 nM	0.862	–
[10], 3000 nM	0.675	–
[11], 4.1 nM	0.696	–
[11], 12.3 nM	1.23	–
[11], 37 nM	0.463	–
[11], 111.1 nM	0.647	–
[11], 333.3 nM	1.03	–
[11], 1000 nM	0.986	–
[11], 3000 nM	1.02	–
[12], 4.1 nM	0.513	–
[12], 12.3 nM	0.635	–
[12], 37 nM	0.742	–
[12], 111.1 nM	0.53	–
[12], 333.3 nM	0.573	–
[12], 1000 nM	0.615	–
[12], 3000 nM	1.13	–
[13], 4.1 nM	0.607	–
[13], 12.3 nM	0.891	–
[13], 37 nM	0.573	–
[13], 111.1 nM	0.373	–
[13], 333.3 nM	0.479	–
[13], 1000 nM	1.04	–
[13], 3000 nM	1.13	–
[14], 4.1 nM	0.824	–
[14], 12.3 nM	0.817	–
[14], 37 nM	0.96	–
[14], 111.1 nM	0.816	–
[14], 333.3 nM	0.735	–
[14], 1000 nM	0.537	–
[14], 3000 nM	0.788	–

OC[C@H]1O[C@@H](Oc2ccc(O)cc2)[C@H](O)[C@@H](O)[C@@H]1O [Arbutin]
Conditions	phenotypic distance	surviving fraction
[1], 4.1 nM	–	1.01
[1], 12.3 nM	–	1.04
[1], 37 nM	–	0.905
[1], 111.1 nM	–	0.917
[1], 333.3 nM	–	0.929
[1], 1000 nM	–	1.04
[1], 3000 nM	–	0.991
[2], 4.1 nM	–	1.03
[2], 12.3 nM	–	0.989
[2], 37 nM	–	1.07
[2], 111.1 nM	–	0.916
[2], 333.3 nM	–	1.05
[2], 1000 nM	–	0.971
[2], 3000 nM	–	0.967
[3], 4.1 nM	–	1.1
[3], 12.3 nM	–	1.03
[3], 37 nM	–	1.07
[3], 111.1 nM	–	1.15
[3], 333.3 nM	–	1.07
[3], 1000 nM	–	1.07
[3], 3000 nM	–	0.905
[4], 4.1 nM	–	0.937
[4], 12.3 nM	–	0.846
[4], 37 nM	–	0.945
[4], 111.1 nM	–	0.889
[4], 333.3 nM	–	1.05
[4], 1000 nM	–	1.13
[4], 3000 nM	–	0.884
[5], 4.1 nM	–	0.904
[5], 12.3 nM	–	1.15
[5], 37 nM	–	1.05
[5], 111.1 nM	–	1.02
[5], 333.3 nM	–	1.08
[5], 1000 nM	–	1.02
[5], 3000 nM	–	0.848
[6], 4.1 nM	–	0.949
[6], 12.3 nM	–	0.993
[6], 37 nM	–	1.11
[6], 111.1 nM	–	0.918
[6], 333.3 nM	–	1.07
[6], 1000 nM	–	1
[6], 3000 nM	–	1
[7], 4.1 nM	–	1.08
[7], 12.3 nM	–	0.99
[7], 37 nM	–	1.28
[7], 111.1 nM	–	0.987
[7], 333.3 nM	–	1.18
[7], 1000 nM	–	1.16
[7], 3000 nM	–	0.993
[8], 4.1 nM	0.566	–
[8], 12.3 nM	0.859	–
[8], 37 nM	0.511	–
[8], 111.1 nM	0.508	–
[8], 333.3 nM	0.829	–
[8], 1000 nM	0.191	–
[8], 3000 nM	0.813	–
[9], 4.1 nM	0.434	–
[9], 12.3 nM	1.06	–
[9], 37 nM	0.902	–
[9], 111.1 nM	0.857	–
[9], 333.3 nM	0.484	–
[9], 1000 nM	0.568	–
[9], 3000 nM	0.491	–
[10], 4.1 nM	0.41	–
[10], 12.3 nM	0.873	–
[10], 37 nM	0.666	–
[10], 111.1 nM	1.1	–
[10], 333.3 nM	0.543	–
[10], 1000 nM	0.716	–
[10], 3000 nM	0.531	–
[11], 4.1 nM	0.898	–
[11], 12.3 nM	0.639	–
[11], 37 nM	0.606	–
[11], 111.1 nM	0.754	–
[11], 333.3 nM	0.505	–
[11], 1000 nM	0.754	–
[11], 3000 nM	0.805	–
[12], 4.1 nM	0.689	–
[12], 12.3 nM	0.94	–
[12], 37 nM	0.434	–
[12], 111.1 nM	0.454	–
[12], 333.3 nM	0.675	–
[12], 1000 nM	0.496	–
[12], 3000 nM	1.12	–
[13], 4.1 nM	0.568	–
[13], 12.3 nM	0.753	–
[13], 37 nM	0.629	–
[13], 111.1 nM	0.522	–
[13], 333.3 nM	0.897	–
[13], 1000 nM	0.4	–
[13], 3000 nM	0.484	–
[14], 4.1 nM	0.247	–
[14], 12.3 nM	0.982	–
[14], 37 nM	0.795	–
[14], 111.1 nM	1.03	–
[14], 333.3 nM	0.636	–
[14], 1000 nM	1.1	–
[14], 3000 nM	0.991	–
